Measurements taken from the supplement of paper PMC10307832.

Compound: Cc1ccc(Nc2nccc(N(C)c3ccc4c(C)n(C)nc4c3)n2)cc1S(N)(=O)=O [Pazopanib] + CCNC(=O)c1noc(-c2cc(C(C)C)c(O)cc2O)c1-c1ccc(CN2CCOCC2)cc1 [Luminespib] (partner 0.01 µM)
Assay: relative viability (nuclei count vs DMSO), 5 days (fraction); higher = more cells survive
Conditions: first compound 0.01 µM
How it was run: (§1)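 Five library-drug doses in √10 steps were combined with a fixed anchor-drug dose, or a single drug was given alone, by pin tool to lung cancer cell lines in 1536-well plates the day after seeding. Nuclei were stained and counted after 5 days. Relative viability is the nuclei count in treated wells over that in vehicle wells, taken as the median of duplicate plates.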

Cell Line	relative viability
201T	0.996
NCI-H1915	0.871
HCC-827	0.369
LXF-289	0.74
NCI-H23	0.227
NCI-H650	0.682
CAL-12T	0.434
NCI-H1651	0.853
NCI-H2228	0.142
NCI-H1355	0.695
NCI-H322M	0.956
NCI-H1437	1.25
NCI-H1755	0.422
NCI-H2023	0.781

Same assay, conditions: first compound 0.03162 µM

Cell Line	relative viability
NCI-H358	0.374
NCI-H3122	0.0909
HOP-62	0.89
HCC-44	1.07
LU99A	0.226
BEN	0.328
HARA	0.704
NCI-H441	0.485
LCLC-97TM1	0.839
NCI-H2009	0.989
A-427	1.18
NCI-H460	0.0326
NCI-H727	0.634
NCI-H1734	0.207
NCI-H520	0.235
NCI-H2405	0.837
SW 1573	0.17

Cell Line	relative viability
NCI-H1793	0.235
201T	1.1
NCI-H1915	0.805
HCC-827	0.778
LXF-289	0.713
NCI-H23	0.209
NCI-H650	0.773
CAL-12T	0.321
NCI-H1651	0.869
EPLC-272H	0.281
NCI-H2228	0.135
NCI-H1792	0.394
NCI-H1355	0.709
NCI-H322M	0.954
NCI-H1437	1.16
NCI-H1755	0.42
NCI-H2023	0.77

Same assay, conditions: first compound 0.1 µM

Cell Line	relative viability
NCI-H358	0.284
NCI-H3122	0.106
HOP-62	0.915
HCC-44	1.07
LU99A	0.244
BEN	0.246
HARA	1.09
NCI-H441	0.311
LCLC-97TM1	0.831
NCI-H2009	0.988
A-427	0.786
NCI-H460	0.033
NCI-H727	0.381
NCI-H1734	0.182
NCI-H520	0.227
NCI-H2405	0.821
SW 1573	0.266

Cell Line	relative viability
NCI-H1793	0.198
201T	1.07
NCI-H1915	0.889
HCC-827	0.747
LXF-289	0.69
NCI-H23	0.219
NCI-H650	0.669
CAL-12T	0.974
NCI-H1651	0.785
EPLC-272H	0.366
NCI-H2228	0.153
NCI-H1792	0.476
NCI-H1355	0.816
NCI-H322M	0.871
NCI-H1437	1.13
NCI-H1755	0.261
NCI-H2023	0.652

Same assay, conditions: first compound 0.3162 µM

Cell Line	relative viability
NCI-H358	0.337
NCI-H3122	0.0886
HOP-62	0.953
HCC-44	1.04
LU99A	0.279
BEN	0.364
HARA	0.76
NCI-H441	0.274
LCLC-97TM1	0.925
NCI-H2009	0.955
A-427	1.02
NCI-H460	0.0276
NCI-H727	0.266
NCI-H1734	0.179
NCI-H520	0.218
NCI-H2405	0.815
SW 1573	0.205

Cell Line	relative viability
NCI-H1793	0.186
201T	1.06
NCI-H1915	0.701
HCC-827	0.603
LXF-289	0.67
NCI-H23	0.226
NCI-H650	0.813
CAL-12T	0.426
NCI-H1651	0.741
EPLC-272H	0.344
NCI-H2228	0.155
NCI-H1792	0.423
NCI-H1355	0.675
NCI-H322M	0.945
NCI-H1437	1.11
NCI-H1755	0.448
NCI-H2023	0.613

Same assay, conditions: first compound 1 µM

Cell Line	relative viability
NCI-H358	0.441
NCI-H3122	0.0721
HOP-62	0.981
HCC-44	1.12
LU99A	0.258
BEN	0.352
HARA	0.839
NCI-H441	0.317
LCLC-97TM1	0.736
NCI-H2009	0.854
A-427	1.19
NCI-H460	0.0432
NCI-H727	0.262
NCI-H1734	0.208
NCI-H520	0.214
NCI-H2405	0.73
SW 1573	0.236

Cell Line	relative viability
NCI-H1793	0.235
201T	1.08
NCI-H1915	0.699
HCC-827	0.46
LXF-289	0.729
NCI-H23	0.231
NCI-H650	0.735
CAL-12T	0.783
NCI-H1651	0.878
EPLC-272H	0.52
NCI-H2228	0.177
NCI-H1792	0.422
NCI-H1355	0.838
NCI-H322M	0.844
NCI-H1437	1.07
NCI-H1755	0.527
NCI-H2023	0.883

Compound: Cc1ccc(Nc2nccc(N(C)c3ccc4c(C)n(C)nc4c3)n2)cc1S(N)(=O)=O [Pazopanib] + C[C@]1(O)C[C@@H](c2nc(-c3ccc4ccc(-c5ccccc5)nc4c3)c3c(N)nccn32)C1 [Linsitinib] (partner 1 µM)
Assay: as above
Conditions: first compound 0.01 µM
How it was run: as §1

Cell Line	relative viability
NCI-H358	0.875
NCI-H3122	0.969
HOP-62	0.9
HCC-44	0.575
LU99A	0.377
BEN	0.819
HARA	0.916
